Like-named read-outs stand apart in the source and are kept apart here.
Key:
[1] = tested on: S. typhimurium DT 104; format: cell-based, Salmonella typhimurium DT104; settings: water, 21° C.
[2] = tested on: spores of Bacillus anthracis Sterne; format: cell-based, Bacillus anthracis Sterne (34F2)
[3] = tested on: S. enteritidis; test: Reduction of S. enteritidis in water treated with organic acids and SDS; format: cell-based, Salmonella enteritidis; settings: water; for S. enteritidis counts: 21° C.; for Salmonella reduction: contact for 30 minutes
[4] = tested on: L. monocytogenes; format: cell-based, Listeria monocytogenes; settings: 21° C.
[5] = tested on: various yeast species; test: Effect of levulinic acids plus SDS at 21° C. on various yeast species; format: cell-based; settings: for Yeast counts at min: 1: 1 min; for Yeast counts at min: 2: 2 min; for Yeast counts at min: 5: 5 min; for Yeast counts at min: 10: 10 min; for Yeast counts at min: 20: 20 min; for Yeast counts at min: 30: 30 min; for Yeast counts at min: 60: 60 min
[6] = 0 min, listed as 0.5% levulinic acid
[7] = 0 min, listed as 1.0% levulinic acid
[8] = 0 min, listed as 2.0% levulinic acid
[9] = 2 min, listed as 0.5% levulinic acid
[10] = 2 min, listed as 1.0% levulinic acid
[11] = 2 min, listed as 2.0% levulinic acid
[12] = 5 min, listed as 0.5% levulinic acid
[13] = 5 min, listed as 1.0% levulinic acid
[14] = 5 min, listed as 2.0% levulinic acid
[15] = 10 min, listed as 0.5% levulinic acid
[16] = 10 min, listed as 1.0% levulinic acid
[17] = 10 min, listed as 2.0% levulinic acid
[18] = 20 min, listed as 0.5% levulinic acid
[19] = 20 min, listed as 1.0% levulinic acid
[20] = 20 min, listed as 2.0% levulinic acid
[21] = 30 min, listed as 0.5% levulinic acid
[22] = 30 min, listed as 1.0% levulinic acid
[23] = 30 min, listed as 2.0% levulinic acid

With `CC(=O)CCC(=O)O` [levulinic acid] the “S. typhimurium DT 104 counts” value ([1]; 0 min) was 6.8 log CFU/ml, the “S. typhimurium DT 104 counts” value ([1]; 1 min) was 6.7 log CFU/ml and the “S. typhimurium DT 104 counts” value ([1]; 2 min) was 6.6 log CFU/ml. For the same molecule, the “S. typhimurium DT 104 counts” value ([1]; 5 min) was 6.5 log CFU/ml, the “S. typhimurium DT 104 counts” value ([1]; 10 min) was 6.7 log CFU/ml and the “S. typhimurium DT 104 counts” value ([1]; 20 min) was 6.6 log CFU/ml. The “S. typhimurium DT 104 counts” value ([1]; 30 min) was 6.4 log CFU/ml, the “S. typhimurium DT 104 counts” value ([1]; 60 min) was 5.9 log CFU/ml and the “CFU % recovery (as compared to control flask F)” value (“CFU % recovery” for short) ([2]; Experiment A3, 10 min) was 81%. For the same molecule, the “CFU % recovery” value ([2]; Experiment A3, 45 min) was 55%, the “CFU % recovery” value ([2]; Experiment A3, 90 min) was 64% and the “CFU % recovery” value ([2]; Experiment A4 absent heat, RT, 0 min) was 89%. The “CFU % recovery” value ([2]; Experiment A4 absent heat, RT, 1 h) was 54%, the “CFU % recovery” value ([2]; Experiment A4 absent heat, RT, 2 h) was 27% and the “CFU % recovery” value ([2]; Experiment A4 absent heat, RT, 3 h) was 30%. For the same molecule, the “CFU % recovery” value ([2]; Experiment A4 absent heat, RT, 4 h) was 15%, the “CFU % recovery” value ([2]; Experiment A4 with heat, 65° C., 0 min) was 70% and the “CFU % recovery” value ([2]; Experiment A4 with heat, 65° C., 1 h) was 78%. For the same molecule, the “CFU % recovery” value ([2]; Experiment A4 with heat, 65° C., 2 h) was 45%, the “CFU % recovery” value ([2]; Experiment A4 with heat, 65° C., 3 h) was 33% and the “CFU % recovery” value ([2]; Experiment A4 with heat, 65° C., 4 h) was 46%. For the same molecule, the “CFU % recovery” value ([2]; Experiment A5 absent heat, RT, 1 h) was 80%, the “CFU % recovery” value ([2]; Experiment A5 absent heat, RT, 2 h) was 46% and the “CFU % recovery” value ([2]; Experiment A5 absent heat, RT, 3 h) was 67%. The “CFU % recovery” value ([2]; Experiment A5 absent heat, RT, 4 h) was 37%, the “CFU % recovery” value ([2]; Experiment A5 with heat, 65° C., 0 min) was 75% and the “CFU % recovery” value ([2]; Experiment A5 with heat, 65° C., 1 h) was 58%. For the same molecule, the “CFU % recovery” value ([2]; Experiment A5 with heat, 65° C., 2 h) was 34%, the “CFU % recovery” value ([2]; Experiment A5 with heat, 65° C., 3 h) was 34% and the “CFU % recovery” value ([2]; Experiment A5 with heat, 65° C., 4 h) was 14%. The S. enteritidis counts ([3]; 0 min, listed as 0.1% levulinic acid) was 7.1 log CFU/ml, the S. enteritidis counts [3, 6] was 7.1 log CFU/ml and the S. enteritidis counts [3, 7] was 6.9 log CFU/ml. For the same molecule, the S. enteritidis counts [3, 8] was 6.7 log CFU/ml, the S. enteritidis counts ([3]; 0 min, listed as 3.0% levulinic acid) was 6.6 log CFU/ml and the S. enteritidis counts ([3]; 2 min, listed as 0.1% levulinic acid) was 7.1 log CFU/ml. The S. enteritidis counts [3, 9] was 6.8 log CFU/ml, the S. enteritidis counts [3, 10] was 6.7 log CFU/ml and the S. enteritidis counts [3, 11] was 6.7 log CFU/ml. For the same molecule, the S. enteritidis counts ([3]; 2 min, listed as 3.0% levulinic acid) was 6.8 log CFU/ml, the S. enteritidis counts ([3]; 5 min, listed as 0.1% levulinic acid) was 6.9 log CFU/ml and the S. enteritidis counts [3, 12] was 6.9 log CFU/ml. For the same molecule, the S. enteritidis counts [3, 13] was 6.8 log CFU/ml, the S. enteritidis counts [3, 14] was 6.7 log CFU/ml and the S. enteritidis counts ([3]; 5 min, listed as 3.0% levulinic acid) was 6.5 log CFU/ml. For the same molecule, the S. enteritidis counts ([3]; 10 min, listed as 0.1% levulinic acid) was 7.0 log CFU/ml, the S. enteritidis counts [3, 15] was 6.9 log CFU/ml and the S. enteritidis counts [3, 16] was 6.9 log CFU/ml. It also gave a S. enteritidis counts [3, 17] of 6.8 log CFU/ml, a S. enteritidis counts ([3]; 10 min, listed as 3.0% levulinic acid) of 6.2 log CFU/ml and a S. enteritidis counts ([3]; 20 min, listed as 0.1% levulinic acid) of 6.9 log CFU/ml. The S. enteritidis counts [3, 18] was 6.6 log CFU/ml, the S. enteritidis counts [3, 19] was 6.9 log CFU/ml and the S. enteritidis counts [3, 20] was 6.5 log CFU/ml. It also gave a S. enteritidis counts ([3]; 20 min, listed as 3.0% levulinic acid) of 5.1 log CFU/ml, a S. enteritidis counts ([3]; 30 min, listed as 0.1% levulinic acid) of 6.9 log CFU/ml and a S. enteritidis counts [3, 21] of 6.7 log CFU/ml. For the same molecule, the S. enteritidis counts [3, 22] was 6.7 log CFU/ml, the S. enteritidis counts [3, 23] was 6.0 log CFU/ml and the S. enteritidis counts ([3]; 30 min, listed as 3.0% levulinic acid) was 3.8 log CFU/ml. It also gave a Salmonella reduction ([3]; listed as 0.1 to 2.0% by weight levulinic acid) of roughly 1 log CFU/ml, a Salmonella reduction ([3]; listed as 1% by weight levulinic acid) of no more than 1 log CFU/ml and a Salmonella reduction ([3]; listed as 3% levulinic acid) of 3.4 log CFU/ml. It also gave a Salmonella reduction ([3]; listed as 3.0% levulinic acid) of 3.4 log CFU/ml, a L. monocytogenes counts ([4]; 0 min) of 6.9 ± 0.1 log CFU/ml and a L. monocytogenes counts [4, 6] of 6.7 ± 0.2 log CFU/ml. It also gave a L. monocytogenes counts [4, 7] of 6.8 ± 0.3 log CFU/ml, a L. monocytogenes counts [4, 8] of 6.8 ± 0.3 log CFU/ml and a L. monocytogenes counts ([4]; 2 min) of 6.9 ± 0.2 log CFU/ml. It also gave a L. monocytogenes counts [4, 9] of 6.7 ± 0.1 log CFU/ml, a L. monocytogenes counts [4, 10] of 6.7 ± 0.2 log CFU/ml and a L. monocytogenes counts [4, 11] of 6.8 ± 0.2 log CFU/ml. The L. monocytogenes counts ([4]; 5 min) was 6.9 ± 0.3 log CFU/ml, the L. monocytogenes counts [4, 12] was 6.8 ± 0.3 log CFU/ml and the L. monocytogenes counts [4, 13] was 6.6 ± 0.3 log CFU/ml. The L. monocytogenes counts [4, 14] was 6.9 ± 0.2 log CFU/ml, the L. monocytogenes counts ([4]; 10 min) was 6.9 ± 0.1 log CFU/ml and the L. monocytogenes counts [4, 15] was 6.9 ± 0.2 log CFU/ml. It also gave a L. monocytogenes counts [4, 16] of 6.6 ± 0.3 log CFU/ml, a L. monocytogenes counts [4, 17] of 6.7 ± 0.2 log CFU/ml and a L. monocytogenes counts ([4]; 20 min) of 6.9 ± 0.3 log CFU/ml. The L. monocytogenes counts [4, 18] was 6.7 ± 0.2 log CFU/ml, the L. monocytogenes counts [4, 19] was 6.6 ± 0.0 log CFU/ml and the L. monocytogenes counts [4, 20] was 6.9 ± 0.2 log CFU/ml. For the same molecule, the L. monocytogenes counts ([4]; 30 min) was 6.8 ± 0.3 log CFU/ml, the L. monocytogenes counts [4, 21] was 6.8 ± 0.2 log CFU/ml and the L. monocytogenes counts [4, 22] was 6.6 ± 0.3 log CFU/ml. For the same molecule, the L. monocytogenes counts [4, 23] was 6.8 ± 0.2 log CFU/ml, the “Yeast counts at min: 1” value ([5]; Debaryomyces hansenii) was 4.8 log CFU/ml and the “Yeast counts at min: 2” value ([5]; Debaryomyces hansenii) was 4.9 log CFU/ml. For the same molecule, the “Yeast counts at min: 5” value ([5]; Debaryomyces hansenii) was 4.6 log CFU/ml, the “Yeast counts at min: 10” value ([5]; Debaryomyces hansenii) was 4.4 log CFU/ml and the “Yeast counts at min: 20” value ([5]; Debaryomyces hansenii) was 4.7 log CFU/ml. The “Yeast counts at min: 30” value ([5]; Debaryomyces hansenii) was 3.0 log CFU/ml, the “Yeast counts at min: 60” value ([5]; Debaryomyces hansenii) was 1.3 log CFU/ml and the “Yeast counts at min: 1” value ([5]; Geotrichum candidum) was 4.4 log CFU/ml. For the same molecule, the “Yeast counts at min: 2” value ([5]; Geotrichum candidum) was 4.4 log CFU/ml, the “Yeast counts at min: 5” value ([5]; Geotrichum candidum) was 4.3 log CFU/ml and the “Yeast counts at min: 10” value ([5]; Geotrichum candidum) was 4.1 log CFU/ml. For the same molecule, the “Yeast counts at min: 20” value ([5]; Geotrichum candidum) was 3.8 log CFU/ml, the “Yeast counts at min: 30” value ([5]; Geotrichum candidum) was 3.4 log CFU/ml and the “Yeast counts at min: 60” value ([5]; Geotrichum candidum) was 2.0 log CFU/ml. For the same molecule, the “Yeast counts at min: 1” value ([5]; Saccharomyces cerevisiae) was 5.3 log CFU/ml, the “Yeast counts at min: 2” value ([5]; Saccharomyces cerevisiae) was 5.5 log CFU/ml and the “Yeast counts at min: 5” value ([5]; Saccharomyces cerevisiae) was 5.4 log CFU/ml. For the same molecule, the “Yeast counts at min: 10” value ([5]; Saccharomyces cerevisiae) was 5.3 log CFU/ml, the “Yeast counts at min: 20” value ([5]; Saccharomyces cerevisiae) was 5.3 log CFU/ml and the “Yeast counts at min: 30” value ([5]; Saccharomyces cerevisiae) was 5.5 log CFU/ml. For the same molecule, the “Yeast counts at min: 60” value ([5]; Saccharomyces cerevisiae) was 5.0 log CFU/ml.

Reference: patent US20120129928A1, “Chlorine-Free Liquid Microbicide Treatment” (University of Georgia Research Foundation, Inc., priority 2010, published 2012)
